# Assay results reported in patent US5599975A, “Cyclised analogues of fatty acid metabolites” (Adir Et Compagnie, priority 1993, dated 1997).
# Tested on: rabbit platelets
# Experiment: Platelet aggregation study: anti-aggregating effect on platelets activated with collagen
# Format: cell-based
# Conditions: Oryctolagus cuniculus, 0.05 h, collagen (2 μl/ml), 37° C., 3 minutes incubation, aggregometer, 1000 rpm, read-out: IC50 (concentration of antagonist necessary to produce 50% inhibition of the aggregating responses to collagen)
# Procedure: The study is carried out on rabbit platelets. […] The plasma rich in platelets (PRP) is obtained by centrifuging (20° C.) at 250 g for 20 minutes. The PRP is centrifuged again (1000 g) for 15 minutes and the platelet sediment is again suspended in a saline solution buffered with tris(hydroxymethyl)aminomethane, containing gelatin (0.2%). After centrifuging again (1000 g; 15 min.), the sediment is again suspended in a physiological solution and stored at room temperature.
# The anti-aggregating effect of the products is examined on platelets activated with collagen (2 μl/ml). The platelet aggregation is carried out at 37° C. in siliconised glass tubes using an aggregometer (Coultronics). The platelets are stirred at 1000 rpm. To test the antagonist effect, the PRP is incubated for 3 minutes at 37° C. with the substance to be tested. The collagen is then added (2 μl/ml).
row,Structure (SMILES),IC50
1,"CCCCCC(O)c1cccc(CCCCCC(=O)O)c1 (centres unmarked) [Example 15, Sodium 6-[3-(1-hydroxyhexyl)phenyl]hexanoate]",21 µM
2,"CCCCCC(O)c1cccc(/C=C\CCCC(=O)O)c1 (centres unmarked) [Example 12, Sodium (5Z)-6-[3-(1-hydroxyhex-1-yl)phenyl]hex-5-enoate]",20 µM
3,CCCCCC#CCC(O)c1cccc(/C=C\CCCC(=O)O)c1 (centres unmarked) [Example 4],2.2 µM
4,"CCCCCC(O)c1cccc(/C=C\CCCC(=O)O)n1 (centres unmarked) [Example 18, Sodium (5Z)-6-[6-(1-hydroxyhex-1-yl)pyrid-2-yl]hex-5-enoate]",30 µM
5,"CCCCC/C=C\CC(O)c1cccc(/C=C\CCCC(=O)O)c1 (centres unmarked) [Example 26, Sodium (5Z)-6-{3-[(3Z)-(1-hydroxynon-3-en-1-yl)]phenyl}hex-5-enoate]",1.8 µM
